Data taken from patent US12465610B2, “Compounds and methods for the treatment of PKR-associated diseases” (Board of Regents, The University of Texas System, priority 2019, dated 2025).

What was measured:
[1] = system: HeLaPKRkd cells; assay: Microscopic analysis of morphologic changes; assay type: cell-based, human
Text: (§1) Anticancer effects of PKR-targeting compounds depend on PKR expression status: To identify compounds that can target lysosomes in PKR-positive cells or MVBs/exosomes in PKR-negative cells, the 10,000-compound ChemBridge library was screened for compounds with different effects on the growth of HeLa and HeLaPKRkd cells. […] SRB assays were next used to determine cell viability after treatment with Pac 1 or Pac 2.
Identification of PKR-associated compounds and cytotoxicity studies: The library of 10,000 compounds was screened for those with different effects on the growth of HeLa and HeLaPKRkd cells. For this screening, both HeLa and HeLaPKRkd cells were seeded in 96-well plates in parallel and treated with each compound at a final concentration of 5 μg/mL. Cells treated with dimethyl sulfoxide (final concentration, 1%) were used as controls. Treated cells were observed under a microscope to detect morphologic changes, and their viability was determined using SRB assays 2 and 3 days after treatment. The compounds initially observed to have different effects on HeLa and HeLaPKRkd cells were subjected to two confirmatory screenings.

[2] = system: HeLa cells; assay: SRB cell viability assay; assay type: cell-based, human; conditions: 72 hours after treatment
Procedure: as §1
(§2) Cell viability assays: For SRB assays, cells (2-8×10^3/well in 100 μL of culture medium) were seeded in 96-well flat-bottomed plates and treated the next day with compounds at the indicated concentrations. After the indicated treatments, cells were fixed with trichloroacetic acid. The protein was stained with SRB, and the optical density at 570 nm was determined. Relative cell viability was calculated by setting the viability rate of the control cells (exposed only to dimethyl sulfoxide) at 100% and comparing the viability of the treated cells with that of the controls. The experiments were performed at least three times for each cell line. The viability of leukemia cell lines was determined by using a 3-(4,5-dimethylthiazol-2-yl)-2,5-diphenyltetrazolium bromide assay.
(§3) Identification of PKR-associated compounds and cytotoxicity studies: The library of 10,000 compounds was screened for those with different effects on the growth of HeLa and HeLaPKRkd cells. […] Treated cells were observed under a microscope to detect morphologic changes, and their viability was determined using SRB assays 2 and 3 days after treatment. […]
(§4) For the SRB assay, cells (2-8×10^3/well in 100 μL of culture medium) were seeded in 96-well flat-bottomed plates and treated the next day with compounds at the indicated concentrations. […] The cells were stained using SRB, and the optical density at 570 nm was determined. Relative cell viability was determined by setting the viability of the control cells (exposed only to dimethyl sulfoxide) at 100% and comparing their viability with that of the treated cells. […]

[3] = system: HeLaPKRkd cells; assay: SRB cell viability assay; assay type: cell-based, human; conditions: 72 hours after treatment
Procedure: as §1, §2, §3, §4

[4] = system: AP-1/2/3 complexes; assay: Western blot of AP-1, AP-2 and AP-3 complex-associated proteins; assay type: cell-based, human; conditions: H1299 and MDA-MB-231 cells, 72 hours after treatment
Text: Western blotting was next used to evaluate proteins known to be involved in AP-1/2/3 complexes in lung (H1299) and breast (MDA-MB-231) cancer cells after treatment with Pac 1 or Pac 2. […] AP-1 and AP-2 mediate protein sorting in the endosome, trans-Golgi network, and plasma membrane. […] The impact of Pac 1 was then investigated on lysosome function by staining cells with the acidophilic dye LysoTracker Red.

[5] = system: lysosomes and MVBs/exosomes; assay: Transmission electron microscopy (TEM) of treated cells; assay type: cell-based, human
[6] = system: normal cells (HBE, human mammary epithelial cells); assay: SRB cell viability assay, normal cells; assay type: cell-based; conditions: 72 hours after treatment, HBE and human mammary epithelial cells
Procedure: The effects of Pac 1 and Pac 2 were next examined on PKR protein expression in HeLa cells using Western blot analysis. […] No reduction in normal cell viability was observed after treatment with Pac 1 or Pac 2 (FIGS. 5F and G). […] Because most of the cancer cell lines that were tested were more sensitive to Pac 1 than to Pac 2, Pac 1 was further investigated.
as §2
For the SRB assay, cells (2-8×10^3/well in 100 μL of culture medium) were seeded in 96-well flat-bottomed plates and treated the next day with compounds at the indicated concentrations. […] The cells were stained using SRB, and the optical density at 570 nm was determined. […]

[7] = Toxicity in mice; conditions: 50 mg/kg intravenously daily for 7 days
[8] = system: prion degradation; assay type: cell-based, human; conditions: HeLa cells, Ad-Prion 48 hours, 1 mM

| Structure (SMILES) | growth of HeLaPKRkd cells by microscopy [1] | viability of HeLa cells [2] | viability of HeLaPKRkd cells [3] | expression of proteins associated with AP-1 (Rab7α, HSC70, AP-1γ) or AP-2 (AP-2α) [4] | lysosomal exocytosis by TEM ([5]; HeLa cells) | lysosomes and MVBs/exosomes by TEM ([5]; HeLaPKRkd cells) | normal cell viability [6] | blood chemistry: aspartate aminotransferase, SGOT, SGPT, alkaline phosphatase, creatine kinase, lactate dehydrogenase levels [7] | histopathologic examination of major organs ([7]; heart, lungs, liver, kidneys, pancreas, spleen) | prion degradation [8] |
| --- | --- | --- | --- | --- | --- | --- | --- | --- | --- | --- |
| Fc1ccc(Nc2nc(N/N=C/c3ccc4c(c3)OCO4)nc(N3CCOCC3)n2)cc1 [Pac 2, 1,3-benzodioxole-5-carbaldehyde [4-[(4-fluorophenyl)amino]-6-(4-morpholinyl)-1,3,5-triazin-2-yl]hydrazine] | suppressed the growth of HeLaPKRkd cells more effectively than did Pac 1 | not sensitive | suppressed more effectively by Pac 2 | No reduction of expression | induced lysosomal exocytosis | destroyed MVBs/exosomes | No reduction | normal | no significant changes in any major organs | – |
| Cn1cnc(N)c2ncnc1-2 [Pac 3MA, 3-methyladenine] | – | – | – | – | – | – | – | – | – | prevented prion degradation |
